Results taken from patent publication US7592336B2, “Hepatitis C virus inhibitors” (Bristol-Myers Squibb Company, priority 2005, dated 2009).
Read-outs that look alike come from different tables or passages of the source.

Legend:
[1] = test system: HCV replicon in HUH-7 cells; test: HCV replicon FRET assay; assay type: cell-based, HCV strain 1b; conditions: Hepatitis C virus
Text: An HCV replicon whole cell system was established as described by Lohmann V, Korner F, Koch J, Herian U, Theilmann L, Bartenschlager R., Science 285(5424):110-3 (1999). This system enabled us to evaluate the effects of our HCV Protease compounds on HCV RNA replication. Briefly, using the HCV strain 1b sequence described in the Lohmann paper (Assession number: AJ238799), an HCV cDNA was synthesized by Operon Technologies, Inc. (Alameda, Calif.), and the full-length replicon was then assembled in plasmid pGem9zf(+) (Promega, Madison, Wis.) using standard molecular biology techniques. The replicon consists of (i) the HCV 5′ UTR fused to the first 12 amino acids of the capsid protein, (ii) the neomycin phosphotransferase gene (neo), (iii) the IRES from encephalomyocarditis virus (EMCV), and (iv) HCV NS3 to NS5B genes and the HCV 3′ UTR. Plasmid DNAs were linearized with ScaI and RNA transcripts were synthesized in vitro using the T7 MegaScript transcription kit (Ambion, Austin, Tex.) according to manufacturer's directions. In vitro transcripts of the cDNA were transfected into the human hepatoma cell line, HUH-7. […] Resulting cell lines were characterized for positive and negative strand RNA production and protein production over time.
The HCV replicon FRET assay was developed to monitor the inhibitory effects of compounds described in the disclosure on HCV viral replication. HUH-7 cells, constitutively expressing the HCV replicon, were grown in Dulbecco's Modified Eagle Media (DMEM) (Gibco-BRL) containing 10% Fetal calf serum (FCS) (Sigma) and 1 mg/ml G418 (Gibco-BRL). Cells were seeded the night before (1.5×10^4 cells/well) in 96-well tissue-culture sterile plates. Compound and no compound controls were prepared in DMEM containing 4% FCS, 1:100 Penicillin/Streptomysin (Gibco-BRL), 1:100 L-glutamine and 5% DMSO in the dilution plate (0.5% DMSO final concentration in the assay). Compound/DMSO mixes were added to the cells and incubated for 4 days at 37° C. After 4 days, cells were first assessed for cytotoxicity using alamar Blue (Trek Diagnotstic Systems) for a CC50 reading. The toxicity of compound (CC50) was determined by adding 1/10th volume of alamar Blue to the media incubating the cells. After 4 h, the fluorescence signal from each well was read, with an excitation wavelength at 530 nm and an emission wavelength of 580 nm, using the Cytofluor Series 4000 (Perspective Biosystems). Plates were then rinsed thoroughly with Phosphate-Buffered Saline (PBS) (3 times 150 μl). The cells were lysed with 25 μl of a lysis assay reagent containing an HCV protease substrate (5× cell Luciferase cell culture lysis reagent (Promega #E153A) diluted to 1× with distilled water, NaCl added to 150 mM final, the FRET peptide substrate (as described for the enzyme assay above) diluted to 10 μM final from a 2 mM stock in 100% DMSO. […]. The plate was then placed into the Cytofluor 4000 instrument which had been set to 340 nm excitation/490 nm emission, automatic mode for 21 cycles and the plate read in a kinetic mode. EC50 determinations were carried out as described for the IC50 determinations.

[2] = molecular target: T1, human neutrophil elastase (HNE) (Homo sapiens, UniProt P08246); test: Specificity assay, neutrophil elastase; assay type: biochemical; conditions: 2 h enzyme-inhibitor pre-incubation; read-out: HLE activity in the specificity assays (IC50)
T1 construct: purchased Sigma
T1 sequence (P08246 30-267): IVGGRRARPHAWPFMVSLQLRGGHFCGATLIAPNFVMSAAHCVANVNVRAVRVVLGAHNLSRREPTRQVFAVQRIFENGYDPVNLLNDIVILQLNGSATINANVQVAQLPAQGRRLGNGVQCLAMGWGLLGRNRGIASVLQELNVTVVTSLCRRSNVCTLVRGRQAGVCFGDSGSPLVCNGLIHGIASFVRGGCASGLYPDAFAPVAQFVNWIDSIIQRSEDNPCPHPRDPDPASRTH
Experimental: (§1) The specificities of compounds of the present disclosure were determined against a variety of serine proteases: human neutrophil elastase (HNE), porcine pancreatic elastase (PPE) and human pancreatic chymotrypsin and one cysteine protease: human liver cathepsin B. In all cases a 96-well plate format protocol using calorimetric p-nitroaniline (pNA) substrate specific for each enzyme was used as described previously (PCT Patent Application No. WO 00/09543) with some modifications to the serine protease assays. All enzymes were purchased from Sigma while the substrates were from Bachem.
(§2) Each assay included a 2 h enzyme-inhibitor pre-incubation at room temperature followed by addition of substrate and hydrolysis to 30% conversion as measured on a Spectramax Pro microplate reader. Compound concentrations varied from 100 to 0.4 μM depending on their potency. […]
(§3) The percentage of inhibition was calculated using the formula: [1−((UVinh−UVblank)/(UVctl−UVblank))]×100 […]

[3] = molecular target: T2, porcine pancreatic elastase (PPE) (Sus scrofa, UniProt P00772); test: Specificity assay, porcine pancreatic elastase; assay type: biochemical; conditions: 2 h enzyme-inhibitor pre-incubation; read-out: PPE activity in the specificity assays (IC50)
T2 construct: purchased Sigma
Experimental: as §1, §2, §3

[4] = molecular target: T3, human liver cathepsin B (Homo sapiens, UniProt P07858); test: Specificity assay, cathepsin B; assay type: biochemical; conditions: 2 h enzyme-inhibitor pre-incubation; read-out: Cathepsin B activity in the specificity assays (IC50)
T3 construct: purchased Sigma; host or cells: human liver
Experimental: as §1, §2, §3

T2 sequence (P00772 27-266): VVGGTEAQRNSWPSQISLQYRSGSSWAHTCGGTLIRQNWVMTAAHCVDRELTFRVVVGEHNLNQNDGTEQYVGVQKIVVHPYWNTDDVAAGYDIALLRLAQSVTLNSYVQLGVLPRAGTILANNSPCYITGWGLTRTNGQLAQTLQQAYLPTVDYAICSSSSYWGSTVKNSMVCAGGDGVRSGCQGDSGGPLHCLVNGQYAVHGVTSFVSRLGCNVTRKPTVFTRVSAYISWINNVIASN

C=C[C@@H]1C[C@]1(NC(=O)[C@@H]1C[C@@](O)(c2ccc(-c3ccccc3)cc2)CN1C(=O)[C@@H](NC(=O)OC(C)(C)C)C(C)(C)C)C(=O)NS(=O)(=O)C1CC1 [Compound 3]
EC50 ([1]; 96 h, HUH-7 replicon cells, 4 days, read-out: EC50 in the replicon FRET assay): 0.028 µM | EC50 ([1]; Huh-7, HCV replicon cell assay, read-out: Activity Range (EC50)): 0.01 to 1 µM | IC50 [2]: > 100 µM | IC50 [3]: > 100 µM | IC50 [4]: 2 µM
